Laboratory results: patent US11026972B2, “Methods for generating macrophages with enhanced cancer phagocytosis” (Georgia State University Research Foundation, Inc., priority 2016, dated 2021)

B1: IL-10: phagocytic suppressive cytokine (protein, UniProt P22301 19-178, looked up)
Interleukin-10: SPGQGTQSENSCTHFPGNLPNMLRDLRDAFSRVKTFFQMKDQLDNLLLKESLLEDFKGYLGCQALSEMIQFYLEEVMPQAENQDPDIKAHVNSLGENLKTLRLRLRRCHRFLPCENKSKAVEQVKNAFNKLQEKGIYKAMSEFDIFINYIEAYMTMKIRN

Assays:
[1] = tested on: CFSE-labeled CD47^+ or CD47^− RBCs in recipient mice; assay: RBC adoptive transfer and in vivo clearance of CFSE-labeled RBCs; design: species or system mouse; conditions: SIRPα^−/− mice; 1% DSS for 8 d or directly injected with IL-17; 24 h
Excerpt: FIGS. 2A-2E includes data related to macrophage phagocytosis in vivo assessed by adoptive transfer experiments. FIGS. 2A-C are illustrative graphs showing clearance of adoptively transferred CD47-positive (Cd47^+) or CD47-negative (Cd47^−) RBC in recipient mice. […] Error bars are ±SEM. **P<0.01, ***P<0.001 vs. WT mice clearance of Cd47^+ RBCs. […] Mice treated with DSS (1% for SIRPα^−/− mice, 2% for WT and Cd47^−/− mice) for 8 d (d8) were transfused with CFSE-RBCs followed by determination of RBC clearance after 24 h. FACS data of Cd47^+ RBCs and Cd47^− RBCs in different mice at 30 min and 24 h after transfer were selectively shown. Total RBC phagocytosis was calculated based on the rates of CFSE-RBC clearance and the fact that SIRPα^−/− mice eliminate both Cd47^− RBC and Cd47^+ RBC, whereas WT mice and Cd47^−/− mice eliminate only Cd47^− RBCs. […] Mice treated once with IL-17 (10 μg/kg, i.v.) were transfused with CFSE-labeled Cd47^+ or Cd47^− RBCs a day later. Error bars are ±SEM. **P<0.01, ***P<0.001 vs. control or the initial time point. Data presented in each panel represent at least three independent experiments with n≥4, if applicable.
Adoptive transfer and in vivo clearance: CD47-expressing (CD47^+) RBC freshly collected from WT or SIRPα^−/− mice, and CD47-null (CD47^−) RBC collected from CD47^−/− mice were labeled with carboxyfluorescein succinimidyl ester (CFSE). After washing, about 1×10^9 RBC suspended in 200 μl sterile PBS were transfused into recipient mice by intravenous (i.v.) injection. Blood samples (5 μl) were then collected 30 min after the blood transfusion and the CFSE-labeled RBC in the circulation was assessed by FACS analyses. Blood samples (5 μl each) were then collected at later time points to assess the clearance of CFSE-labeled RBC as compared to that found at 30 min. For each sample, at least 50,000 RBC were examined by FACS. […] Clearance of CFSE-labeled cells in the circulation and the spleen were analyzed by FACS analyses of blood samples and splenocytes. […]

[2] = tested on: SIRPα^−/− and CD47^−/− mice; assay: Acute anemia and splenomegaly in mice deficient of CD47-SIRPα-mediated inhibition under inflammatory conditions; type: in vivo, mouse; conditions: colitic SIRPα^−/− mice; 1% DSS, 10 days
Excerpt: FIGS. 1A-1K illustrate our assessment of acute anemia in mice deficient of CD47-SIRPα-mediated inhibition under inflammatory conditions. FIG. 1A includes a schematic drawing of a wild type (WT) and targeted allele of SIRPα (“SIRPα”) and data related to the generation of SIRPα “knock out” (KO) mice. […] Western blot (WB) analysis confirmed the depletion of SIRPα (˜120 kDa) protein in bone marrow leukocytes from SIRPα^−/− mice. FIG. 1B includes a photograph of intestinal tissue and a line graph charting the change in body weight of mice in which colitis had been induced by treatment with 1% or 2% DSS. […] FIGS. 1C and 1D include data related to acute anemia and splenomegaly developed in SIRPα^−/− mice with colitis. WT mice and SIRPα^−/− mice treated with DSS (2% DSS for WT and 1% DSS for SIRPα^−/−) for 10 days were analyzed for the presence of […] (FIG. 1C) and the content of hemoglobin in peripheral blood (FIG. 1D). FIG. 1E includes a panel of photomicrographs in which hematoxylin and eosin (H&E) was used to stain sections of spleens from WT and SIRPα^−/− mice treated with 2% and 1% DSS for 10 days. The bar graph of FIG. 1E illustrates the hemoglobin content in the spleens of WT and SIRPα^−/− mice treated with water or DSS. FIG. 1F is a pair of line graphs showing the time course over which anemia developed in SIRPα^−/− mice when colitis was induced with DSS and the levels of IL-17 in the serum over that same period of time. FIG. 1G is a diagram showing that IL-17 neutralization ameliorates anemia and splenomegaly in SIRPα^−/− mice with colitis. An anti-IL-17 antibody (10 μg, i.v.) was given on days 6 and 8 (arrows) during DSS-induction of colitis. FIG. 1H is a diagram showing that IL-17-containing colitic serum induces acute anemia in SIRPα^−/− mice. Serum samples collected from healthy (Ctl.) and colitic WT mice (2% DSS, 10 d) were administered to healthy SIRPα^−/− mice (i.v., 3×, arrows) with or without an anti-IL-17 antibody. FIGS. 1I and 1J are illustrative graphs showing that IL-17 directly induces acute anemia and splenomegaly in SIRPα^−/− mice and Cd47^−/− mice. Healthy mice were given recombinant IL-17 (10 μg/kg, i.v.) on days 1 and 3 (arrows, FIG. 1J); anemia and splenomegaly were analyzed on day 5 (FIG. 1I) or in a time course manner (FIG. 1J). FIG. 1K includes diagrams showing that acute anemia and splenomegaly in SIRPα^−/− and Cd47^−/− mice under zymosan-peritonitis (3×, every other day), IL-6 administration ([…], i.v.), LPS (0.25 mg/kg, i.p.), and CFA (1×, s.c.) administrations. Error bars are ±SEM **P<0.01, ***P<0.001 vs. control or the beginning time point. Data presented in each panel represent at least three independent experiments with n≥4, if applicable.
Hemoglobin assay: To assay blood hemoglobin, 10 μl of whole blood were obtained from the tail vein followed by lysis in 1 ml distilled water. After centrifugation (13,000 rpm, 30 min), the hemoglobin-containing supernatants were collected and measured for the optical density at the wavelength of 540 nm.
Animal inflammation models: To induce peritonitis, mice (6-8 wk, 20-22 g) were intraperitoneally injected with 0.5 mg zymosan A (Sigma) in 0.5 ml sterile PBS followed by euthanasia at 2, 4, 6 and 8 hours. […] The colitic condition was then assessed by observing diarrhea, measuring body weight loss, increases of inflammatory cytokines, the shortage of the large intestine and intestinal tissue analyses (after euthanasia). […]

[3] = tested on: splenic macrophages, PEMs and BMDMs; assay: Ex vivo macrophage phagocytosis toward RBCs and other self-cells after activation; type: cell-based, mouse; conditions: various concentrations of IL-10
Description: FIGS. 3A-3H include data related to our experiments assaying macrophage phagocytosis ex vivo. FIGS. 3A and 3B show macrophage phagocytosis of RBCs. Freshly isolated splenic macrophages (MØ) and peritoneal macrophages (PEM) and in vitro-derived BMDM (bone marrow-derived macrophages) were tested for phagocytosis toward CFSE-labeled Cd47^+ or Cd47^− RBCs. […] FIGS. 3F and 3G illustrate LPS and IL-17-activated PEM phagocytosis toward splenocytes (FIG. 3F), B16, and EL4 (FIG. 3G). Error bars are ±SEM. **P<0.01, ***P<0.001 vs. no treatment controls. […] PEM lavaged without (ctl.) or with Brewer thioglycollate (3%, i.p.) elicitation was tested. Error bars are ±SEM. ***P<0.001 vs. control PEM. Data presented in each panel represent at least three independent experiments with n≥4, if applicable.
FIGS. 4A-4E include data related to our experiments on macrophage phagocytic plasticity. FIG. 4A is a panel of illustrative line graphs showing that IL-10 inhibits macrophage phagocytosis toward “self.” PEMs were treated with LPS and activating cytokines along with various concentrations of IL-10 before testing their ability to phagocytose RBCs. FIG. 4B illustrates the phagocytic plasticity of WT red pulp macrophages. […] Treatments of cultured macrophages with LPS and IL-17 re-elicited their phagocytosis toward RBCs. […] Error bars are ±SEM. ***P<0.001 vs. freshly isolated splenic macrophages. FIG. 4D includes microscopic images of RBC phagocytosis by LPS- and IL-17-treated splenic macrophages. […] WT PEMs treated with LPS or IL-17 were further treated with Cd47^+ RBCs or Cd47-AP (10 min, 37° C.) followed by cell lysis, SIRPα immunoprecipitation, and WB detection of SIRPα phosphorylation (SIRPα^pY) and SHP-1 association. Data presented in each panel represent at least three independent experiments with n≥4, if applicable.
Ex vivo macrophage phagocytosis: Mouse spleens were harvested and minced in cold HBSS followed by passing through nylon meshes. The spleen cells in suspensions were collected by centrifugation followed by washing. After lysis of RBC, splenocytes were plated in cell culture dishes in DMEM with 10% FBS and cultured for 2 h followed by removal of non-adherent cells. The adherent cells, ˜70% being macrophages as determined by anti-F4/80 staining, were tested for phagocytosis. For phagocytosis of RBC or other tissue cells, targeted cells were labeled with CFSE prior to addition into the macrophage-containing wells. Macrophages and target cells, at a ratio of 1:5-10 for RBC or 1:1-2 for other cells, were co-incubated for 30 min at 37° C. followed by gently washing. Macrophage phagocytosis of target cells was then analyzed by fluorescence microscopy and/or by FACS. To better recognize macrophages, macrophages in wells were labeled with an anti-F4/80 or an anti-CD11b antibody. Alternatively, the freshly isolated splenocytes in suspension were incubated with CFSE-labeled RBC and other phagocytic targets for 30 min at 37° C. Macrophage phagocytosis was then determined by FACS after labeling macrophages with anti-F4/80. To test phagocytosis of apoptotic cells, B16 cells were irradiated by UV for 150 seconds at 50 J/m^2 strength. Apoptosis was analyzed at 2, 4, 6, 8 and 18 h post UV irradiation by labeling of the cells with anti-phosphatidylserine (PS) antibody (data not shown) or FITC-conjugated annexin V (data not shown). Cells that were confirmed to be apoptotic were trypsinized, labeled with CFSE, and then co-incubated with macrophages for 30 min at 37° C. After gentle washing, phagocytosis was analyzed by fluorescence microscopy and/or FACS. To test phagocytosis of bacteria and the fungal product zymosan, AlexaFluor-conjugated E.coli strain […] (2 μl suspension, ˜2 μg) or zymosan bioparticles (1 μl suspension, ˜2 μg) (both from Invitrogen) were incubated with macrophages for 30 min followed by washing and analyses. Similar procedures were performed to test phagocytosis of macrophages from various sources. […]

Syk = Syk phosphorylation at Y519/520 in PEMs; type: cell-based, mouse
Description: FIGS. 5A-5H include data related to our experiments on the role of Syk in phagocytic activation. […] PEMs were treated with LPS and cytokines in the presence of various inhibitors. After washing, inhibitor-free macrophages were tested for phagocytosis toward RBCs. […] PEMs treated with LPS and activating cytokines, or together with IL-10, were tested for total Syk and phosphorylated Syk (Syk^pY, specific at Y519/520). FIG. 5D describes PMA-induced macrophages phagocytosis toward RBCs. WT and SIRPα^−/− PEMs were treated with PMA (37° C., 30 min) before testing phagocytosis toward RBCs. FIG. 5E is a schematic depiction of PKC-Syk-mediated macrophage phagocytic activation toward self. […] Left: Inhibition of Syk by piceatannol and R406 prevented PMA-induced phagocytic activation. […] Error bars are ±SEM. ***P<0.001 vs. the respective controls. […] LPS-treated WT PEMs were further briefly treated with pervanadate before testing for phagocytosis toward RBCs. Error bars are ±SEM. ***P<0.001 vs. the respective controls. […] Data presented in each panel represent at least three independent experiments with n≥4, if applicable.
Multiple pharmacological inhibitors were tested for their effects on LPS and cytokine-induced activation of macrophage phagocytosis toward self. […] For example, inhibition of JAKs blocked IL-6 and IL-17, but not LPS and TNFα, for activation of PEM phagocytosis. […]

Molecule	clearance of transferred CD47^+ and CD47^− RBCs [1] [%]	peripheral hemoglobin reduction [2]	LPS-, IL-17-, IL-6-, TNFα-, and IL-1β-induced activation of PEM phagocytosis toward RBCs [3]	Syk phosphorylation (Syk^PY, Y519/520) (Syk)
dextran sodium sulfate [DSS]	~50	40-50		
B1			dose-dependently inhibited	counter-repressed Syk phosphorylation
